Measured values taken from patent US4044134A, “Fused pyrimidin-4(3H)-ones as antiallergy agents” (Pfizer Inc., priority 1976, dated 1977).
Where a name gives a salt, the structure may show the parent alone. Read-outs that look alike come from different tables or passages of the source.

Tested on: passive cutaneous anaphylaxis (PCA) reaction
Experiment: passive cutaneous anaphylaxis (PCA) test, i.v. or oral administration
Assay type: in vivo, male Charles River Wistar rats
Settings: for inhibition in vivo at 3 mg/kg / inhibition in vivo at 60 mg/kg / inhibition in vivo at 0.03 mg/kg / inhibition in vivo at 0.3 mg/kg / inhibition in vivo at 1 mg/kg / inhibition in vivo at 0.1 mg/kg / inhibition in vivo at 10 mg/kg / inhibition in vivo at 30 mg/kg / inhibition in vivo at 0.003 mg/kg / inhibition in vivo at 100 mg/kg: Rattus norvegicus, read-out: degree (%) of protection, PCA test
Description: In the PCA test, normal animals are injected intradermally (i.d.) with antibodies contained in serum obtained from actively sensitized animals. The animals are then challenged intravenously with antigen mixed with a dye such as Evans' Blue. The increased capillary-permeability caused by the antigen-antibody reaction causes the dye to leak from the site of the antibody injection. The test animals are then asphyxiated and the intensity of the reaction determined by measuring the diameter and intensity of the blue coloration on the inner surface of the animals skin. […] The ability of agents to interfere with PCA reactions is measured in male Charles River Wistar rats, 170-210 g. […] Hyperimmune antisera to hen egg albumin is prepared according to Orange, et al., J. Exptl. […] Forty-eight hours prior to antigen challenge the reaginic antisera is injected intradermally (i.d.) into the shaved skin of a normal rat's back; 5 hours before challenge the hyperimmune antisera is similarly injected; 5 hours later, at a third site, 60 mcg. histamine dihydrochloride is injected i.d. as a check for antihistaminic and unspecific types of blockage; the compounds of the instant invention or saline are then administered i.v. and immediately followed by 2.5 mg. Evan's blue dye and 5 mg. egg albumin in saline. In the case of oral administration Evan's blue dye and egg albumen are given five minutes after administration of the drug. Thirty minutes later the animals are asphyxiated using chloroform and the skin of the back removed and reversed for observation. A score is assigned each injection site equal to the product of the diameter of the site in mm. and a grade of 0.1, 0.5, 1, 2, 3 or 4 proportional to intensity of dye coloration. The scores for a given injection site are summed for each group of 8 animals and compared to the saline treated controls. The difference is expressed as percent blockade due to the compound employed. […] Disodium cromoglycate, a commerial antiallergy agent, is included for comparison. [drawing 3]

Row | SMILES | inhibition in vivo at 3 mg/kg (iv, I.V., 3 mg/kg) | inhibition in vivo at 0.03 mg/kg (iv, I.V.) | inhibition in vivo at 1 mg/kg (iv, I.V.) | inhibition in vivo at 10 mg/kg (Oral, 10 mg/kg) | other results
1 | CCOC(=O)Cc1nc2cc3ccccc3cc2c(=O)[nH]1 [2-carbethoxymethylbenzo[g]quinazolin-4(3H)-one, reference compound] | 49% |  |  |  | 
2 | Cc1nc2cc3ccccc3cc2c(=O)[nH]1 [2-methylbenzo[g]quinazolin-4(3H)-one, reference compound] |  |  |  |  | activity in the PCA test (rat, in vivo): little or no activity
3 | CCc1nc2nc3cc(OC)c(OC)cc3cc2c(=O)[nH]1 [C2 H5/H/H/OCH3/OCH3/H, 2-Ethyl-7,8-Dimethoxypyrimidin[4,5-b]quinolin-4(SH)-One] | 56% |  |  |  | inhibition in vivo at 60 mg/kg (Oral): 0%
4 | COc1cc2cc3c(=O)[nH]c(C)nc3nc2cc1OC [CH3/H/H/OCH3/OCH3/H, 2-Methyl-7,8-Dimethoxypyrimido[4,5-b]Quinolin-4(3H)-One] | 77% | 11% |  |  | inhibition in vivo at 0.3 mg/kg (iv, I.V.): 45%; inhibition in vivo at 1 mg/kg (Oral): 43%; inhibition in vivo at 3 mg/kg (Oral, 3 mg/kg): 67%
5 | COc1cc2cc3c(=O)[nH]c(C(C)=O)nc3nc2cc1OC [COCH3/H/H/OCH3/OCH3/H, 2-Acetyl-7,8-Dimethoxypyrimido[4,5-b]quinoline-4(3H)-One] | 100% |  | 21% | 15% | inhibition in vivo at 0.1 mg/kg (iv, I.V.): 19%
6 | NC(=O)c1nc2nc3ccccc3cc2c(=O)[nH]1 [CONH2/H/H/H/H/H, Pyrimido[4,5-b]Quinolin-4(3H)-One-2-Carboxamide] | 98% |  |  |  | inhibition in vivo at 60 mg/kg (Oral): 23%
7 | COc1cc2cc3c(=O)[nH]c(C(N)=O)nc3nc2cc1OC [CONH2/H/H/OCH3/OCH3/H, 7,8-Dimethoxypyrimido[4,5-b]Quinolin-4(3H)-One-2-Carboxamide] | 87% |  |  |  | inhibition in vivo at 30 mg/kg (Oral): 4%
8 | COc1cc2cc3c(=O)[nH]c(C(=O)NO)nc3nc2cc1OC [CONHOH/H/H/OCH3/OCH3/H, 7,8-Dimethoxypyrimido-[4,5-b]-Quinolin-4(3H)-One-2-Hydroxamic Acid] | 92% |  |  |  | inhibition in vivo at 60 mg/kg (Oral): 3%
9 | CCCCOC(=O)c1nc2nc3ccccc3cc2c(=O)[nH]1 [COO(n-C4 H9)/H/H/H/H/H, n-Butylpyrimido[4,5-b]Quinolin-4(3H)-One-2-carboxylate] |  | 6% | 90% |  | inhibition in vivo at 30 mg/kg (Oral): 50%
10 | CCCCOC(=O)c1nc2nc3cc(OC)c(OC)cc3cc2c(=O)[nH]1 [COO(n-C4 H9)/H/H/OCH3/OCH3/H] | 90% | 100% |  |  | inhibition in vivo at 0.003 mg/kg (iv, I.V., 0.003 mg/kg): 64%; inhibition in vivo at 0.3 mg/kg (iv, I.V.): 94%; inhibition in vivo at 30 mg/kg (Oral): 81%
11 | CCCCOC(=O)c1nc2nc3cc(OC)c(OC(C)=O)cc3cc2c(=O)[nH]1 [COO-(n-C4 H9)/H/H/CH3 COO/OCH3/H] | 100% |  |  | 36% | 
12 | CCCCOC(=O)c1nc2nc3cc(OC)c(OCc4ccccc4)cc3cc2c(=O)[nH]1 [COO-(n-C4 H9)/H/H/OC7 H7/OCH3/H] | 100% | 57% |  | 12% | 
13 | CCCCOC(=O)c1nc2nc3cc(OC)c(O)cc3cc2c(=O)[nH]1 [COO-(n-C4 H9)/H/H/OH/OCH3/H, n-butyl 7-hydroxy-8-methoxypyrimido[4,5-b]quinolin-4(3H)one-2-carboxylate trifluoroacetate] | 100% |  |  | 67% | inhibition in vivo at 0.003 mg/kg (iv, I.V., 0.003 mg/kg): 52%
14 | CCOC(=O)c1nc2nc3ccccc3c(-c3ccccc3)c2c(=O)[nH]1 [COOC2 H5/C6 H5/H/H/H/H, Ethyl 5-Phenylpyrimido[4,5-b]Quinolin-4(3H)-One-2-Carboxylate] | 100% |  | 95% | 0% | inhibition in vivo at 0.1 mg/kg (iv, I.V.): 9%; inhibition in vivo at 0.3 mg/kg (iv, I.V.): 51%; inhibition in vivo at 1 mg/kg (Oral): 0%
15 | CCOC(=O)c1nc2nc3cccc(Cl)c3cc2c(=O)[nH]1 [COOC2 H5/H/Cl/H/H/H, Ethyl 6-Chloropyrimido[4,5-b]Quinolin-4(3H)-One-2-Carboxylate] |  | 11% | 96% |  | inhibition in vivo at 30 mg/kg (Oral): 57%
16 | CCOC(=O)c1nc2nc3cc4c(cc3cc2c(=O)[nH]1)OCO4 [COOC2 H5/H/H/--O--CH2 --O--, Ethyl 7,8-Methylenedioxypyrimido[4,5-b]Quinolin-4(3H)-One-2-Carboxylate] |  |  | 70% |  | inhibition in vivo at 0.1 mg/kg (iv, I.V.): 0%; inhibition in vivo at 30 mg/kg (Oral): 0%
17 | CCOC(=O)c1nc2nc3cc4c(cc3cc2c(=O)[nH]1)OCCO4 [COOC2 H5/H/H/--O--CH2 CH2 --O--/H] | 72% |  | 64% |  | 
18 | CCOC(=O)c1nc2nc3cc(OC)c(OC(C)=O)cc3cc2c(=O)[nH]1 [COOC2 H5/H/H/CH3 COO/OCH3/H, Ethyl 7-Acetoxy-8-Methoxypyrimido[4,5-b]Quinolin-4(3H)One-2-Carboxylate p-Toluenesulfonate] |  |  |  |  | inhibition in vivo at 0.003 mg/kg (iv): 53%; inhibition in vivo at 3 mg/kg (iv): 100%; inhibition in vivo at 10 mg/kg (po): 40%
19 | CCOC(=O)c1nc2nc3ccc(Cl)cc3cc2c(=O)[nH]1 [COOC2 H5/H/H/Cl/H/H, Ethyl 7-Chloropyrimido[4,5-b]quinolin-4(3H)-one-2-carboxylate] |  | 0% | 70% |  | 
20 | CCOC(=O)c1nc2nc3ccc(F)cc3cc2c(=O)[nH]1 [COOC2 H5/H/H/F/H/H, Ethyl 7-fluoropyrimido[4,5-b]quinolin-4(3H)-one-2-carboxylate] | 82% | 0% | 90% |  | inhibition in vivo at 30 mg/kg (Oral): 17%
21 | CCOC(=O)c1nc2nc3cc(F)ccc3cc2c(=O)[nH]1 [COOC2 H5/H/H/H/F/H, Ethyl 8-fluoropyrimido[4,5-b]quinolin-4(3H)-one-2-carboxylate] |  |  |  |  | inhibition in vivo at 0.1 mg/kg (iv, I.V.): 2%
22 | CCOC(=O)c1nc2cc3ccccc3cc2c(=O)[nH]1 [COOC2 H5/H/H/H/H (Formula II), ethyl Benzo[g]Quinazolin-4(3H)-One-2-Carboxylate] |  |  |  |  | inhibition in vivo at 10 mg/kg (iv, I.V., 10 mg/kg): 27%; inhibition in vivo at 100 mg/kg (Oral): 38%
23 | CCOC(=O)c1nc2nc3ccccc3cc2c(=O)[nH]1 [COOC2 H5/H/H/H/H/H, Ethyl Pyrimido[4,5-b]Quinolin-4-(3H)-One-2-Carboxylate] | 99% | 30% | 100% |  | inhibition in vivo at 0.1 mg/kg (iv, I.V.): 45%; inhibition in vivo at 0.3 mg/kg (iv, I.V.): 82%; inhibition in vivo at 10 mg/kg (iv, I.V., 10 mg/kg): 100%; inhibition in vivo at 1 mg/kg (Oral): 12%; inhibition in vivo at 3 mg/kg (Oral, 3 mg/kg): 69%; inhibition in vivo at 30 mg/kg (Oral): 72%; inhibition in vivo at 60 mg/kg (Oral): 100%; inhibition in vivo at 100 mg/kg (Oral): 80%
24 | CCOC(=O)c1nc2nc3cc(OC)ccc3cc2c(=O)[nH]1 [COOC2 H5/H/H/H/OCH3/H] | 90% | 0% |  | 43% | inhibition in vivo at 0.3 mg/kg (iv, I.V.): 20%
25 | CCOC(=O)c1nc2nc3c(OC)c(OC)ccc3cc2c(=O)[nH]1 [COOC2 H5/H/H/H/OCH3/OCH3, Ethyl 8,9-Dimethoxypyrimido[4,5-b]-Quinolin-4(3H)-One-2-Carboxylate] | 100% |  |  | 0% | inhibition in vivo at 0.3 mg/kg (iv, I.V.): 39%; inhibition in vivo at 60 mg/kg (Oral): 26%
26 | CCCCOc1cc2nc3nc(C(=O)OCC)[nH]c(=O)c3cc2cc1OCC [COOC2 H5/H/H/OC2 H5/O-(n-C4 H9)/H] | 90% | 0% | 95% | 67% | inhibition in vivo at 0.1 mg/kg (iv, I.V.): 28%; inhibition in vivo at 0.3 mg/kg (iv, I.V.): 44%; inhibition in vivo at 1 mg/kg (Oral): 3%; inhibition in vivo at 3 mg/kg (Oral, 3 mg/kg): 43%
